Measurements: PubChem BioAssay (NCI)
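Growth conditions: 96-well plates. Treatment: test compound, 48 hours, 5 concentrations. Analysis: linear interpolation between bracketing concentrations; unreached endpoints set to highest concentration. TGI: total growth inhibition.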

Legend:
Test in all cases: growth of human tumour cells (NCI), 48 h
CAKI-1 renal = system: CAKI-1 renal
HCT-116 colon = system: HCT-116 colon
HT29 colon = system: HT29 colon
M14 melanoma = system: M14 melanoma
OVCAR-8 ovarian = system: OVCAR-8 ovarian
PC-3 prostate = system: PC-3 prostate
RPMI-8226 leukemia = system: RPMI-8226 leukemia
SF-295 CNS = system: SF-295 CNS
SK-OV-3 ovarian = system: SK-OV-3 ovarian
SNB-75 CNS = system: SNB-75 CNS
NCI-H23 lung = system: NCI-H23 lung

Row | SMILES | TGI (CAKI-1 renal) [µM] | TGI (HCT-116 colon) [µM] | TGI (HT29 colon) [µM] | TGI (M14 melanoma) [µM] | TGI (OVCAR-8 ovarian) [µM] | TGI (PC-3 prostate) [µM] | TGI (RPMI-8226 leukemia) [µM] | TGI (SF-295 CNS) [µM] | TGI (SK-OV-3 ovarian) [µM] | TGI (SNB-75 CNS) [µM] | TGI (NCI-H23 lung) [µM]
1 | N#C/C(=C\c1cccc(Br)c1)c1nc2ccccc2c(=O)[nH]1 | > 100 | > 100 | > 100 | > 100 | > 100 | > 100 | > 100 | > 100 | > 100 | 76 | –
2 | C=C1CC(COc2ccc3c(C)c(C)c(=O)oc3c2C)(c2ccccc2)OC1=O (centres undefined) | 3.33 | 2.77 | 3.27 | 4.23 | 3.59 | 3.84 | 0.764 | 19.2 | 13.4 | 10.4 | 4.64
3 | CN(C)CCCNc1cc(O)c2c(c1O)C(=O)c1ccccc1C2=O | 25.7 | 18.4 | 24 | 19.5 | 30.5 | 27.5 | 29.8 | 25.9 | 24.8 | – | 27.9
4 | Clc1ccc(OCc2nnc(COc3ccc(OCc4nnc(COc5ccc(Cl)cc5Cl)o4)c(Cl)c3)o2)c(Cl)c1 | 54.9 | > 100 | 87.5 | > 100 | > 100 | > 100 | 39.6 | > 100 | – | – | > 100
5 | CC1(C)N=C(N)N=C(N)N1c1cccc(OCc2cccc(N)c2)c1 | > 100 | > 100 | > 100 | > 100 | > 100 | > 100 | > 100 | > 100 | > 100 | > 100 | > 100
6 | NC(Cc1[nH]nc2ccccc12)C(=O)O (centres undefined) | > 100 | > 100 | > 100 | > 100 | > 100 | > 100 | > 100 | > 100 | > 100 | > 100 | > 100
7 | C#CCOCC12C=CC(O1)C1COC(=O)C12 (centres undefined) | > 100 | > 100 | > 100 | > 100 | > 100 | > 100 | > 100 | > 100 | > 100 | > 100 | > 100
8 | O=c1c(-c2ccccc2)c(SCCN2CCCCCC2)n(-c2ccccc2)c(=S)n1-c1ccccc1 | 99.1 | – | – | – | > 100 | – | > 100 | > 100 | > 100 | > 100 | > 100
9 | CCCO/N=[N+](\[O-])N(CC)CC | – | > 100 | > 100 | > 100 | > 100 | – | – | > 100 | > 100 | – | > 100
10 | COC(=O)C1=C(C)NC(C)=C(C(=O)OC)C1c1cccc(N=O)c1 | 22.4 | 23.9 | 34 | 27 | 28.5 | 31.7 | > 100 | > 100 | 44.3 | – | 36.2
11 | Cn1c2c(c3ccccc31)CCN1C(=O)C34CCCC3CC21S4 (centres undefined) | > 100 | > 100 | > 100 | > 100 | > 100 | > 100 | > 100 | > 100 | > 100 | – | > 100
12 | CC(C)=CCC12Cc3ccc(O)cc3C(C(C)CN1)C2C (centres undefined) | – | > 100 | > 100 | 51.5 | > 100 | – | > 100 | > 100 | > 100 | > 100 | > 100
13 | NCCN(CCN(C(=O)Nc1ccccc1)c1ccccc1)C(=O)Nc1ccccc1 | – | 33.5 | > 100 | 53.4 | 52.2 | 90.3 | > 100 | 36.4 | 44.9 | 45.4 | 63
14 | COc1cccc(N2C(=O)CS(=O)(=O)C2c2cccc(Oc3ccccc3)c2)c1 (centres undefined) | > 100 | 24.7 | 89.3 | 89.7 | 77.2 | 85.8 | – | > 100 | > 100 | 84.5 | > 100
15 | CCOC(=O)Cn1nnc2cc(Nc3c(C)[n+]([O-])c4cc(F)c(OCC)cc4[n+]3[O-])ccc21 | > 100 | > 100 | > 100 | > 100 | > 100 | > 100 | > 100 | > 100 | > 100 | – | > 100
16 | O=C1N/N=C\c2ccc(cc2)OCc2cccc(n2)COc2ccc(cc2)/C=N\NC1=O | – | > 25 | > 25 | > 25 | > 25 | > 25 | > 25 | > 25 | > 25 | > 25 | > 25
17 | Cc1cnc2[nH]c(-c3cccc(F)c3)cc(=O)c2c1 | > 100 | – | 0.806 | – | 1.5 | – | > 43 | – | > 100 | > 100 | 2.03
18 | Cn1nc2c(c1N)Cc1c(nn(C)c1N)-c1ccccc1-2 | > 100 | > 100 | > 100 | > 100 | > 100 | > 100 | > 100 | > 100 | > 100 | – | > 100
19 | CC(=O)OC1CC2(O)C(CCC3(C)C(c4ccc(=O)oc4)CCC32O)C2(C)C1=CC(O)C1OC12 (centres undefined) | 0.0968 | 0.216 | 2.89 | – | 0.258 | – | 0.4 | 0.261 | 0.252 | 0.3 | 0.0618
20 | CN(C)CCNc1c([N+](=O)[O-])sc2ccc(Cl)cc12 | – | – | > 100 | > 100 | > 100 | > 100 | > 100 | > 100 | > 100 | 43 | > 100
21 | C[C@H](c1ccccc1)N1C(=O)[C@@H](OCc2ccccc2)[C@H]1[C@H](COC(=O)COCc1ccccc1)OCc1ccccc1 | – | > 100 | – | > 100 | – | > 100 | > 100 | > 100 | > 100 | > 100 | > 100
